Literature values, collected in patent publication US20120195875A1, “DETECTION OF IMMUNE MODULATION RESULTING FROM REDUCED PROTEIN PHOSPHATASE 2A ACTIVITY” (CEDARS-SINAI MEDICAL CENTER, priority 2011, published 2012).

Columns and labels:
[1] = system: murine peritoneal macrophages

Row | Compound | LPS-induced TNF-α, IL-1β, IFN-β, IP-10, IRF-1, and TNFR-2 release (macrophages) | LPS-induced macrophage responses (macrophages) | LPS tolerance ([1]; 1 h before the first or 16 h before the second LPS stimulation) | p38 phosphorylation ([1]; in response to primary LPS stimulation) | phosphorylation of ERK-1/ERK-2, JNK/SAPK and p38/SAPK-2 ([1]; in response to second LPS stimulation)
1 | COC[C@@H]([C@H](O)[C@H](O)C(=O)NCC[C@H](C)c1nc(/C=C/C[C@@H]2O[C@]3(C[C@@H](O)[C@@H]2C)O[C@H]([C@H](C[C@H](O)[C@H](C)[C@H](O)[C@H](C)/C=C(C)/C(C)=C/C=C/C(C)=C\C#N)OC)[C@H](OP(=O)(O)O)C3(C)C)co1)N(C)C [calyculin A] | inhibit | inhibits | – | – | –
2 | C=C1[C@@H](O)[C@@H]2O[C@]3(CC[C@H](/C=C/[C@@H](C)[C@@H]4CC(C)=C[C@@]5(O[C@H](C[C@@](C)(O)C(=O)O)CC[C@H]5O)O4)O3)CC[C@H]2O[C@@H]1[C@@H](O)C[C@H](C)[C@H]1O[C@@]2(CCCCO2)CC[C@H]1C [okadaic acid] | – | – | reversed LPS tolerance | inhibition | restored and prolonged
